Results: patent US8686224B2, “Plant defense signal peptides” (priority 2005, dated 2014)
Where “and” joins values, the source holds several entries; their conditions need not be identical. Identical values can stand only once.

Columns and labels:
[1] = tested on: P. syringae pv. tomato DC3000 (Pst DC3000); assay: Pst DC3000 inoculation of Arabidopsis leaves with peptide pre-infiltration; format: in vivo, Pseudomonas syringae
Excerpt: The resistance to P. irregulare requires the JA signaling pathway in Arabidopsis (Staswick et al, Plant J. 15: 747-754, 1998), and AtPep peptides induced PDF1.2, a marker gene for the JA response (Huffaker et al., Proc. Natl. Acad. Sci. USA 103: 10098-10103, Huffaker and Ryan, Proc. Natl. Acad. Sci. USA 104: 10732-10736, 2007). […] In order to examine this possibility, Arabidopsis plants were inoculated with P. syringae pv. tomato DC3000 (Pst DC3000) with or without AtPep1 pre-infiltration. Pst DC3000 was extracted from the infected leaves 4 days after infection and colony forming units (cfu/cm^2) were calculated. […] The reduction of Pst DC3000 growth was also not observed when the double mutant, pepr1-1/pepr2-1, was pre-infiltrated with AtPep1. […] Pre-infiltration of AtPep2-6 also attenuated Pst DC3000 growth to different degrees.
To assess the importance of AtPEPR1 and AtPEPR2 in the resistance to Pst DC3000 after infiltration of AtPep1, T-DNA insertional mutants were inoculated. When 1 μM AtPep1 was infiltrated into leaves one day prior to Pst DC3000 inoculation, the size of the necrotic regions were reduced in both wild type and single mutant lines, pepr1-1 and pepr2-1. […] Similar results were obtained when another set of mutant lines, pepr1-2, pepr2-2 and pepr1-2/pepr2-2, was used.

AtPEPR2 = target: T1, AtPEPR2 (Arabidopsis thaliana, UniProt Q9FZ59); assay: Medium alkalinization of transgenic tobacco cells expressing AtPEPR2; format: cell-based
T1 construct: the AtPEPR2 coding region was fused to the CaMV 35S promoter and introduced into tobacco suspension-cultured cells; expressed in transfected cells; host or cells: tobacco suspension-cultured cells, transformed by Agrobacterium, kanamycin-selected
T1 sequence (Q9FZ59 27-1088): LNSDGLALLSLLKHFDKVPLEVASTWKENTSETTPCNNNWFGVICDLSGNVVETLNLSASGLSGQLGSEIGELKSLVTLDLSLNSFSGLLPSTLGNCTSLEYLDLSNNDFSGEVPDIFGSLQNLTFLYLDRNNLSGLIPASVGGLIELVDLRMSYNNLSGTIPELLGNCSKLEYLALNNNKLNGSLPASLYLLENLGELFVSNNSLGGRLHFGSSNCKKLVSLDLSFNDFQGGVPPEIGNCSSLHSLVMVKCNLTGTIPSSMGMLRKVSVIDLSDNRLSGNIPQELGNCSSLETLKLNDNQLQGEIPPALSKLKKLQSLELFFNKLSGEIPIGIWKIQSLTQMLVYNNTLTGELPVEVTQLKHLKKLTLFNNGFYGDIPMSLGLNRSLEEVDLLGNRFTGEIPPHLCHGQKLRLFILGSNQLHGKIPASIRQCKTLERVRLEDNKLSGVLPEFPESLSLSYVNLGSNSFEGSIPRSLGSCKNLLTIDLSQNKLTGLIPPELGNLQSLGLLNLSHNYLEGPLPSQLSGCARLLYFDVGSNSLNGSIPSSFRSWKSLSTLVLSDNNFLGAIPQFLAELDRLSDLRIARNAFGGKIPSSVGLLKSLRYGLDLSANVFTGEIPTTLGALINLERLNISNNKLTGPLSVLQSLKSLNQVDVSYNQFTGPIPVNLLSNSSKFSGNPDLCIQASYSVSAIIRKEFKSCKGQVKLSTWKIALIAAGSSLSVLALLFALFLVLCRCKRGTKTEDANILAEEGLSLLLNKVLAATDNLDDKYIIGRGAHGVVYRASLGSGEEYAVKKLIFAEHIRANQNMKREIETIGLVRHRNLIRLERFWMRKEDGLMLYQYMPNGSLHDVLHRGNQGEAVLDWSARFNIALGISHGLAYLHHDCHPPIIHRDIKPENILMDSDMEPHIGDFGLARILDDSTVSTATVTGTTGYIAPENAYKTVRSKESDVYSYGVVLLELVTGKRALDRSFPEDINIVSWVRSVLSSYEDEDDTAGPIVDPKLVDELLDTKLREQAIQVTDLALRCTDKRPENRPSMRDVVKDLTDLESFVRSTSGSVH
Description: To clarify whether AtPEPR2 binds to AtPep1, the AtPEPR2 coding region was fused to the CaMV 35S promoter and introduced into tobacco suspension-cultured cells by Agrobacterium. Tobacco cells expressing AtPEPR1 and GUS genes were also created as positive and negative controls, respectively. […] These transgenic lines were analyzed for alkalinizing activity as previously described (Pearce et al., Proc. Natl. Acad. Sci. USA 98, 12843-12847, 2001).
The response to all AtPep peptides in transgenic tobacco cells expressing either AtPEPR1 or AtPEPR2 was analyzed by the medium alkalinization assay.

[2] = 1 μM one day prior, pepr1-1/pepr2-1
[3] = AtPEPR2 expressing tobacco cells

Substance: H-ATKVKAKQRGKEKVSSGRPGQHN-OH [AtPep1]
- bacterial growth reduced to ([1]; 1 μM infiltrated one day prior to inoculation, wild type): 1/100
- bacterial growth reduced to ([1]; 1 μM one day prior, pepr1-1): 1/25
- colony growth in the double mutants [1, 2]: no decrease in colony growth
- symptom development in double mutants [1, 2]: did not affect symptom development
- bacterial growth reduced to ([1]; 1 μM one day prior, pepr2-1): 1/100
- size of the necrotic regions ([1]; 1 μM one day prior, wild type and single mutants pepr1-1 and pepr2-1): reduced
- Pst DC3000 growth in double mutant pepr1-1/pepr2-1 ([1]; pre-infiltration): not observed
- attenuation of Pst DC3000 in fad3,7,8, npr1-1 and sid2-2 mutants ([1]; pre-infiltration): differentially diminished
- effect on Pst DC3000 growth compared with flg22 pre-infiltration ([1]; pre-infiltration, wild type): more effective than flg22 pre-infiltration
- Pst DC3000 growth in leaves after pre-infiltration ([1]; wild type, cfu/cm^2 4 days after infection, AtPep1 10 nM solution): reduced Pst DC3000 growth in leaves
- EC50 (AtPEPR2): ~0.25 nM
- alkalinization of the medium (AtPEPR2; [3]): caused alkalinization of the media
- maximal change (AtPEPR2; [3]): 1-1.2 pH units and 1.2 pH units
